Columns and labels:
PDGFRβ tyrosine kinase = molecular target: T1, PDGFRβ tyrosine kinase (Homo sapiens, UniProt P09619); experiment: In vitro enzyme assay (ELISA), Test (a), PDGFRβ; format: biochemical; conditions: ATP 2.8 μM, read-out: IC50 versus PDGFRβ tyrosine kinase
T1 construct: PDGFRα, PDGFRβ and KDR receptor cytoplasmic domains, obtained by expression of recombinant protein in insect cells; purchased Upstate Biotechnology Inc. 14-463; host or cells: Sf9 insect cells
Procedure: (§1) The ability of test compounds to inhibit the phosphorylation of a tyrosine containing polypeptide substrate by the tyrosine kinase enzymes PDGFRα, PDGFRβ and KDR was assessed using conventional ELISA assays. DNA encoding the PDGFRα, PDGFRβ or KDR receptor cytoplasmic domains may be obtained by total gene synthesis (International Biotechnology Lab., 1987, 5(3), 19-25) or by cloning. The DNA fragments may be expressed in a suitable expression system to obtain polypeptide with tyrosine kinase activity. For example, PDGFRα, PDGFRβ and KDR receptor cytoplasmic domains, obtained by expression of recombinant protein in insect cells, can be shown to display intrinsic tyrosine kinase activity. In the case of the VEGF receptor KDR (Genbank Accession No. L04947), a DNA fragment encoding most of the cytoplasmic domain, commencing with methionine 806 and including the termination codon may be cloned into a baculovirus transplacement vector [for example pAcYM1 (see The Baculovirus Expression System: A Laboratory Guide, L. A. King and R. D. Possee, Chapman and Hall, 1992) or pAc360 or pBlueBacHis (available from Invitrogen Corporation)]. This recombinant construct may be co-transfected into insect cells [for example Spodoptera frugiperda 21(Sf21) or Spodoptera frugiperda 9(Sf9)] with viral DNA (for example Pharmingen BaculoGold) to prepare recombinant baculovirus. […]

PDGFRα tyrosine kinase = molecular target: T2, PDGFRα tyrosine kinase (Homo sapiens, UniProt P16234); experiment: In vitro enzyme assay (ELISA), Test (a), PDGFRα; format: biochemical; conditions: ATP 14 μM, read-out: IC50 versus PDGFRα tyrosine kinase
T2 construct: PDGFRα, PDGFRβ and KDR receptor cytoplasmic domains, obtained by expression of recombinant protein in insect cells; purchased Upstate Biotechnology Inc. 14-467; host or cells: Sf9 insect cells
T2 sequence (P16234 550-1089 limits assumed): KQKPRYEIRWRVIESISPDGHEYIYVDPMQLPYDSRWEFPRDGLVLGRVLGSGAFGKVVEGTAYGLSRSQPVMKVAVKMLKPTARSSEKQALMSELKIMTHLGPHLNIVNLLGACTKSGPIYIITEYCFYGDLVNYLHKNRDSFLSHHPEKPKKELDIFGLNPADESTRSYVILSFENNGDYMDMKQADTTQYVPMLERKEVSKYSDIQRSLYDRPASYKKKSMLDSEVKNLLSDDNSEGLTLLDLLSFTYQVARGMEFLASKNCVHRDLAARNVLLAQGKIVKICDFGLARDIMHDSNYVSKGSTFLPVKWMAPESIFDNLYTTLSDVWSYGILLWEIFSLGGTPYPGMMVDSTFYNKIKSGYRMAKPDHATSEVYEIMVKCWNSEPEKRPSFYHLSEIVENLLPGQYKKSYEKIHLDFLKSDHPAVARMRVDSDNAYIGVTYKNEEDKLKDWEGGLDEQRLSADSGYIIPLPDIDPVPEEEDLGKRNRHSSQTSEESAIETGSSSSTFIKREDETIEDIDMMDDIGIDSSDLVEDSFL
Procedure: as §1

T1 sequence (P09619 554-1106 limits assumed): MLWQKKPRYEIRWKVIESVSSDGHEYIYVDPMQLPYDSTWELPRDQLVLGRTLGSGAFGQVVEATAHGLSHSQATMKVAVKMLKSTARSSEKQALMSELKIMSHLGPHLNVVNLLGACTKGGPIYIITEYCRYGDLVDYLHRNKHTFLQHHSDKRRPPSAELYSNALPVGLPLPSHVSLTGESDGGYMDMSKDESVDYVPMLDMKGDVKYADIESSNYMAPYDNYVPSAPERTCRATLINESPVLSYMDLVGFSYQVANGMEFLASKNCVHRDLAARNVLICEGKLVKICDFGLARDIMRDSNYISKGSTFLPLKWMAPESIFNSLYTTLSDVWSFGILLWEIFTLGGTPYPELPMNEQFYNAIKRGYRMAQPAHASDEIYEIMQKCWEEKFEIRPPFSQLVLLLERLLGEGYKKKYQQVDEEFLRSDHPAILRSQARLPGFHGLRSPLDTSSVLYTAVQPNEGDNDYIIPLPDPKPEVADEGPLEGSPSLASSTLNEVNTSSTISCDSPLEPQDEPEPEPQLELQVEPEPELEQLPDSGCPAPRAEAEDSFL

IC50 (PDGFRβ tyrosine kinase): ~10 nM
IC50 (PDGFRα tyrosine kinase): ~100 nM
Structure (SMILES): COc1cc2ncnc(Oc3cnn(CC(=O)Nc4cccc5c4OCO5)c3)c2cc1OC [Example 2, N-(2,3-methylenedioxyphenyl)-2-[4-(6,7-dimethoxyquinazolin-4-yloxy)pyrazol-1-yl]acetamide]
